Experimental data reported in US4904593A (priority 1986, dated 1990).
Where two headings read alike, the source gives them in different places.

Columns and labels:
[1] = test system: purified esterase; test: Hydrolysis activity of the esterase to substrates, pH-stat (Example 6, Table 1); assay type: biochemical, Bacillus sp. DC-1; conditions: 100 mM Tris-HCl pH 9.0, emulsified with 0.2% polyvinyl alcohol, ethyl butyrate = 100
Protocol: (§1) Also, the hydrolysis activities of the present esterase to choline ester, cholesterol ester, and thiol ester were determined.
(§2) In Table 1, the hydrolysis activity is expressed in relative activity (%) based on the hydrolysis activity of the present esterase to ethyl butyrate taken as 100. Each substrate was used after it was emulsified with 0.2% polyvinyl alcohol. In Table 2, hydrolysis activities to choline ester and cholesterol ester were observed by the use of the Cholinesterase B-test (Wako) and Free-Cholesterol B-test (Wako), respectively, and hydrolysis activity to thiol ester was based on increase in absorbance at 412 nm with a spectrophotometer in which glutathione, a standard substance, and 5,5'-dithiobis(2-nitrobenzoic acid) (DTNB) were employed. The activity is expressed in mole numbers of choline, cholesterol, and CoA to be liberated per minute.

[2] = test system: purified esterase; test: Hydrolysis activity to cholesterol ester, Free-Cholesterol B-test (Table 2); assay type: biochemical, Bacillus sp. DC-1; conditions: substrate 1,300 μM; cholesterol liberated per minute
Protocol: as §1, §2

[3] = test system: purified esterase; assay type: biochemical, Bacillus sp. DC-1
[4] = test system: esterase from Pseudomonas aeruginosa; conditions: cited from earlier work
[5] = test system: purified esterase; test: Hydrolysis activity to thiol ester, DTNB absorbance at 412 nm (Table 2); assay type: biochemical, Bacillus sp. DC-1; conditions: for Activity: substrate 50 μM, CoA liberated per minute; for Substrate specificity (esterase active or not): summary of properties, thiol esters
Protocol: as §1, §2

With `CC(=O)OCC(COC(C)=O)OC(C)=O` [Triacetin] as the molecule, how does the “Relative activity (%)” value ([1]; substrate 20 mM) read?
The value was 14.1%.

Which “Activity” value [2] does the source give for `CCCCC/C=C\C/C=C\CCCCCCCC(=O)O[C@H]1CC[C@@]2(C)C(=CC[C@H]3[C@@H]4CC[C@H]([C@H](C)CCCC(C)C)[C@@]4(C)CC[C@@H]32)C1` [Cholesterol linolate] here?
The value was 0 nmol/min.

Which “Inactivation of the esterase” value [3] does the source give for `O=S(=O)(F)Cc1ccccc1` [PMSF, phenylmethylsulfonylfluoride] here?
The value was “Completely inactivated”.

And the “Remaining activity(%)” value ([3]; 80 µM)?
Its value is 1.5%.

For Tween-80, which “Remaining activity(%)” value [3] is on record?
Its value is 130.8%.

Which “Relative activity (%)” value ([1]; substrate 20 mM) does the source give for `CCCC(=O)OCC(COC(=O)CCC)OC(=O)CCC` [Tributylin] here?
The value was 56.6%.

For `CCCCCCCCCCCCCCCC(=O)OCC(COC(=O)CCCCCCCCCCCCCCC)OC(=O)CCCCCCCCCCCCCCC` [Tripalmitin], which “Relative activity (%)” value ([1]; substrate 6 mM) is on record?
The value was 1.1%.

With `CCCC(=O)OCC` [Ethyl butyrate] as the molecule, how does the “Relative activity (%)” value ([1]; substrate 20 mM) read?
The value was 100.0%.

For `CCCCCCCCCCCCCCCC(=O)OC(C)C` [Isopropyl palmitate], which “Relative activity (%)” value ([1]; substrate 20 mM) is on record?
Its value is 1.7%.

What does the source list for `CCCCCCCCCCCCOS(=O)(=O)[O-].[Na+]` [Sodium lauryl sulfate]?
Remaining activity(%) [3]: 32.2%; Decrease of activity (inactivation) ([3]; purified esterase, pH 9, 10 min, 5000 µM): about 70%; Inactivation of the esterase from Pseudomonas aeruginosa [4]: not inactivated

For `CCCCCCCCCCCCCCCC(=O)OCC(O)COC(=O)CCCCCCCCCCCCCCC` [1,3-dipalmitoyl glycerol], which “Relative activity (%)” value ([1]; substrate 2 mM) is on record?
Its value is 0%.

Which “Relative activity (%)” value ([1]; substrate 5 mM) does the source give for `CCCCCCCCCCCCCCCC(=O)OCC(O)CO` (centres unmarked) [1-palmitoyl glycerol] here?
The value was 3.0%.

What does the source list for `CCCCCCCCCCCCCCCC(=O)SCCNC(=O)CCNC(=O)[C@H](O)C(C)(C)COP(=O)(O)OP(=O)(O)OC[C@H]1O[C@@H](n2cnc3c(N)ncnc32)[C@H](O)[C@@H]1OP(=O)(O)O` [Palmitoyl CoA]?
Activity [5]: 5.4 nmol/min; Substrate specificity (esterase active or not) [5]: Active

Which “Remaining activity(%)” value [3] does the source give for Tritonx-100 here?
Its value is 101.5%.

With `CC(=O)O[C@H]1CC[C@@]2(C)C(=CC[C@H]3[C@@H]4CC[C@H]([C@H](C)CCCC(C)C)[C@@]4(C)CC[C@@H]32)C1` [Cholesterol acetate] as the molecule, how does the “Activity” value [2] read?
Its value is 0 nmol/min.

With `CC(=O)SCCNC(=O)CCNC(=O)[C@H](O)C(C)(C)COP(=O)(O)OP(=O)(O)OC[C@H]1O[C@@H](n2cnc3c(N)ncnc32)[C@H](O)[C@@H]1OP(=O)(O)O` [Acetyl CoA] as the molecule, how does the “Activity” value [5] read?
Its value is 0 nmol/min.

And the “Substrate specificity (esterase active or not)” value [5]?
The value was “not”.

With `CCCCCCCCCCCCCCCC(=O)OCC(CO)OC(=O)CCCCCCCCCCCCCCC` (centres unmarked) [1,2-dipalmitoyl glycerol] as the molecule, how does the “Relative activity (%)” value ([1]; substrate 5 mM) read?
The value was 0.2%.

For `C[C@H](CCC(=O)O)[C@H]1CC[C@H]2[C@@H]3CC[C@@H]4C[C@H](O)CC[C@]4(C)[C@H]3C[C@H](O)[C@]12C` [Sodium deoxycholate], which “Remaining activity(%)” value [3] is on record?
The value was 76.2%.

What about the Decrease of activity ([3]; purified esterase, pH 9, 10 min, 1000 µM) of the same molecule?
Its Decrease of activity is “about 25%”.
